# In patent publication US9469878B2, “Methods of treating cancer comprising targeting NQO1” (The Board of Regents of the University of Texas System, priority 2010, dated 2016):
# Columns and labels:
# [1] = test system: orthotopic lung tumors, *2/*2 or *3/*3; test: Survival of mice bearing orthotopic lung tumors; assay type: in vivo; settings: *2/*2 or *3/*3 tumors, β-lap-HPβ-CD intravenously, 5 doses every other day
# Description: FIG. 16 depicts NQO1 levels predict response to NQO1 bioactivatable therapies. In (a) LD50 responses of non-small cell lung cancer (NSCLC) cell lines treated with β-Lap for 2 h and harvester 7 days later. LD50 responses were plotted as a function of NQO1 enzymatic levels. The notations, *1/*1 and *2/*2 represent the NQO1 status of each cell line as homozygous wild type (*1/*1) or homozygous polymorphic (*2/*2) genotypes. Note that all heterozygote cells containing one wild-type allele (*1) are wild-type, phenotypically, for NQO1 expression, such that only homozygous *2/*2 or 3/3 are considered non-responsive to NQO1 bioactivatable drugs. Note the high resistance of H596 and H2862 cell lines to β-lapachone compared to all of the wild-type *1/*1 cells with LD50 values less than 5 μM. Note also that *3/*3 SNPs in NQO1 are far more rare than *2/*2 single point mutations in NQO1. In (b), Kaplan-Meier survival curve of mice bearing orthotopic lung tumors implanted with *1/*1 A549 cells. Mice were treated intravenously (5 doses every other day) with β-lap-HPβ-CD or vehicle alone (HPβ-CD). Similar studies with *2/*2 or *3/*3 tumors were performed and these tumors were non-responsive to β-lapachone or other NQO1 bioactivatable drug therapies.
# PC-3 cells = test: Alkaline comet assay; assay type: cell-based, human; settings: PC-3 cells after exposure to 4 μM β-lap
# Description: DNA lesions, including total base damage, DSBs and SSBs, versus DSBs were assessed using single-cell gel electrophoretic comet assays under alkaline or neutral conditions, respectively (TREVIGEN, Gaithersburg, Md.). Slides were stained with SYBR Green and visualized using a Nikon Eclipse TE2000-E fluorescence microscope (Melville, N.Y.). Digital photomicrographs were taken and comet tail lengths quantified using NIH Image J software. Each datum point represents an average of 100 cells±SE, and data are representative of experiments performed in triplicate.
# [2] = test system: MDA-MB-231 cells expressing NQO1 (231+); test: Long term survival assay; assay type: cell-based, human; settings: 231-NQ+ cells
# Description: Cells were cultured and treated as described above.
# Data were expressed as relative survival (treated/control×100%).
# HCC366/NSCLC = test: β-lapachone lethality in NQO1 genotyped cancer cells; assay type: cell-based, human
# Description: (§1) Cell lines, mostly from a 5-panel nonsmall cell lung cancer panel from the UT Southwestern SPORE, were assessed for NQO1 polymorphism status and then monitored for NQO1 enzyme assays using β-lapachone or the standard menadione substrates. Cell line responses to β-lapachone exposures (μM, 2 h) were then assessed and lethal doses causing 50% lethality with or without dicoumarol (40 μM) co-treatments were recorded. NQO1*2/*2 and *3/*3 polymorphisms were detected from NQO1 *1/*1 wild-type sequences by PCR-RFLP. Genomic DNA was extracted from the cells using Qiagen spin columns. Using previously described oligonucleotide primers, PCR products underwent gel electrophoresis. Final genotyping was determined based on the size and pattern of separated bands diagnostic for *1/*1 (wild-type), or polymorphic *2/*2 or *3/*3 NQO1 polymorphisms.
# MDA-MB-468/Breast = test: as above; assay type: cell-based, human
# Description: as §1
# H1993 = test: as above; assay type: cell-based, human
# Description: as §1
# MDA-MB-231/Breast = test: as above; assay type: cell-based, human
# Description: as §1
# H292 = test: as above; assay type: cell-based, human
# Description: as §1
# T47D/BreastCancer = test: as above; assay type: cell-based, human
# Description: as §1
# H322 = test: as above; assay type: cell-based, human
# Description: as §1
# H1648 = test: as above; assay type: cell-based, human
# Description: as §1
# HCC44 = test: as above; assay type: cell-based, human
# Description: as §1
# H2073 = test: as above; assay type: cell-based, human
# Description: as §1
# HCC1171/NSCLC = test: as above; assay type: cell-based, human
# Description: as §1
# [3] = *2/*2, 2 h, + dicoumarol (40 μM)
# [4] = NQO1 genotype *2/*2, 2 h exposure
# [5] = *3/*3, 2 h, + dicoumarol (40 μM)
# [6] = NQO1 genotype *3/*3, 2 h exposure
smiles,measurement,setting,value
"CC1(C)CCC2=C(O1)c1ccccc1C(=O)C2=O [β-Lap, 3,4-dihydro-2,2-dimethyl-2H-naphtho[1,2-b]pyran-5,6-dione]",Response of tumors,[1],non-responsive
same,IR dose equivalent to DNA lesions by alkaline assays,PC-3 cells,20 Gy
same,Lethal dose,[2]; 2 h,> 2 µM
same,Sublethal dose,[2]; 2 h,1 µM
same,LD70 dose,[2]; 2 h treatment,~2 µM
same,LD50 + DIC,HCC366/NSCLC; [3],>10 µM
same,β-Lap Lethality LD50,HCC366/NSCLC; [4],>10 µM
same,LD50 + DIC,MDA-MB-468/Breast; [3],>10 µM
same,β-Lap Lethality LD50,MDA-MB-468/Breast; [4],>10 µM
same,LD50 + DIC,"H1993; H1993, *1/*1, 2 h, + dicoumarol (40 μM)",>10 µM
same,β-Lap Lethality LD50,"H1993; H1993, NQO1 genotype *1/*1, 2 h exposure",1.8 µM
same,LD50 + DIC,MDA-MB-231/Breast; [3],>10 µM
same,β-Lap Lethality LD50,MDA-MB-231/Breast; [4],>10 µM
same,LD50 + DIC,"H292; H292, *1/*2, 2 h, + dicoumarol (40 μM)",>10 µM
same,β-Lap Lethality LD50,"H292; H292, NQO1 genotype *1/*2, 2 h exposure",1.8 µM
same,LD50 + DIC,T47D/BreastCancer; [5],4 µM
same,β-Lap Lethality LD50,T47D/BreastCancer; [6],4 µM
same,LD50 + DIC,"H322; H322, *1/*1, 2 h, + dicoumarol (40 μM)",>20 µM
same,β-Lap Lethality LD50,"H322; H322, NQO1 genotype *1/*1, 2 h exposure",5.7 µM
same,LD50 + DIC,"H1648; H1648, *1/*1, 2 h, + dicoumarol (40 μM)",>20 µM
same,β-Lap Lethality LD50,"H1648; H1648, NQO1 genotype *1/*1, 2 h exposure",4.1 µM
same,LD50 + DIC,"HCC44; HCC44, *1/*2, 2 h, + dicoumarol (40 μM)",>10 µM
same,β-Lap Lethality LD50,"HCC44; HCC44, NQO1 genotype *1/*2, 2 h exposure",2.8 µM
same,LD50 + DIC,"H2073; H2073, *1/*1, 2 h, + dicoumarol (40 μM)",>10 µM
same,β-Lap Lethality LD50,"H2073; H2073, NQO1 genotype *1/*1, 2 h exposure",1.8 µM
same,LD50 + DIC,HCC1171/NSCLC; [5],2 µM
same,β-Lap Lethality LD50,HCC1171/NSCLC; [6],3 µM
